{"source": "patent US20160095923A1", "about": "“ORAL COMPOSITION COMPRISNG (+)-CATECHIN” (VALORE, priority 2013, published 2016)", "key": {"[1]": {"test": "Bioavailability after oral administration in human beings (free monomeric (+)-catechin in plasma, LC-MS/MS)", "experimental": "(§1) The experimental results described below were obtained on the basis of a study carried out in healthy human beings and in healthy Wistar rats weighing approximately 250 grams.\n(§2) With regard to taking the blood samples from the rats and from the human beings, the blood was collected in tubes internally coated with EDTA and was then centrifuged at 3000 rpm (revolutions per minute) at ambient temperature for 45 min, and then for 15 min at a temperature of 4° C. The plasma was then collected and stored at −70° C. before analysis.\n(§3) The analytical technique (LC-MS/MS for Liquid Chromatography coupled to tandem Mass Spectrometry) for measuring the active substance in the blood was based on the method described by Mata-Bilbao et al., published in 2007 in the Journal of Agricultural and Food Chemistry, volume 55, page 8857.\n(§4) The free (+)-catechin was extracted from the plasma with a solution of phosphoric acid, EDTA and ascorbic acid and was then purified by SPE (solid phase extraction); in particular, it is an Oasis™ HLB extraction which is analyzed by LC-MS/MS. The quantification was carried out according to a standard calibration procedure with (+/−)-catechin-2,3,4-^13C3 as internal standard (SI).\nThis complex salt is administered to a group A of 5 healthy volunteers.\nThis ct parameter makes it possible to calculate, from the data of table 1, the bioavailability of the (+)-catechin expressed in ng h/ml."}, "[2]": {"test": "Bioavailability after oral administration or intravenous injection in Wistar rats (free/total polyphenol in plasma, LC-MS/MS)", "details": "per os", "experimental": "as §1\nAn acclimation period was observed before beginning the experiments.\nThe rats received an administration per os of a volume of 5 ml of a solution of active product.\nas §2, §3, §4\nThe procedure is identical with regard to the extraction and the quantification of free quercetin or ECGC in the blood.\nWith regard to the extraction and quantification of the total (+)-catechin, the procedure is the same as that applied to the free (+)-catechin, with the exception of the fact that an additional step prior to the purification by SPE is carried out.\nEach of the mixtures is then solubilized in water.\nEach of the mixtures is solubilized in water."}, "Solubility in water": {"test": "Solubility in water", "format": "physicochemical"}, "rat skin": {"system": "rat skin", "test": "Total incorporation and incorporation into collagen of 3H-proline in the skin", "format": "in vivo, Wistar rats", "details": "100 mg/kg by gavage for 5 days", "experimental": "To do this, a study was carried out in vivo on a batch of 24 female Wistar rats weighing from 95 to 115 g, divided into two groups C and D, each of 12 rats. For each group, the radioactive 3H-hydroxyproline, the specific activity of which is 13.6 Ci/10^−3 mol, was administered to all the animals by intraperitoneal injection of proline-L-(5-3H) at a dose, relative to the weight of the individuals, of 1 mCi/kg, which represents an activity in terms of radioactive 3H-proline of 100 μCi/individual.\n6 rats of each group received a treatment based on monomeric (+)-catechin by gavage in a proportion of 100 mg/kg for 5 days before sacrifice. […] The group C received monomeric (+)-catechin hydrochlorolysinate, while the group D received monomeric (+)-catechin ascorbolysinate.\nIn table 8, the level of incorporation is measured by the number of disintegrations of the radioactive 3H-hydroxyproline per minute (dpm) per mg of dry weight. The higher this number, the higher the concentration of 3H-hydroxyproline.\nIn this comparative example, a group E of 12 Wistar rats weighing from 95 to 115 g, in which radioactive 3H-hydroxyproline, the specific activity of which is 13.6 Ci/10^−3 mol, was administered to all the individuals by intraperitoneal injection of proline-L-(5-3H) at a dose, relative to the weight of the individuals, of 1 mCi/kg, which represents an activity in terms of radioactive 3H-proline of 100 ρCi/individual.\n6 rats of each group received a treatment based on pure monomeric (+)-catechin by gavage in a proportion of 100 mg/kg for 5 days before sacrifice.\nIn table 9, the level of incorporation is measured by the number of disintegrations of the radioactive 3H-hydroxyproline per minute (dpm) per mg of dry weight. The higher this number, the higher the concentration of 3H-hydroxyproline."}, "[3]": {"details": "group B, oral 1 g pure catechin, free catechin"}, "[4]": {"details": "free catechin, dose equivalent to 100 mg/kg catechin, 5 rats"}, "[5]": {"details": "free catechin, equivalent to 25 mg/kg, 3 rats (comparative example 4)"}, "[6]": {"details": "free catechin, equivalent to 25 mg/kg, 5 rats, mixture dissolved in water (comparative examples 6-9)"}, "[7]": {"details": "total (+)-catechin, equivalent to 25 mg/kg, 3 rats"}}, "data": [{"smiles": "Oc1cc(O)c2c(c1)O[C@H](c1ccc(O)c(O)c1)[C@@H](O)C2", "note": "[CP, (+)-catechin]", "values": [{"measurement": "plasma concentration (cc) of free monomeric (+)-catechin", "setting": "[1]; group B, oral 1 g pure catechin, T 0.5 h", "result": "59 ± 61", "unit": "ng/mL"}, {"measurement": "plasma concentration (cc) of free monomeric (+)-catechin", "setting": "[1]; group B, oral 1 g pure catechin, T 1 h", "result": "266 ± 147", "unit": "ng/mL"}, {"measurement": "plasma concentration (cc) of free monomeric (+)-catechin", "setting": "[1]; group B, oral 1 g pure catechin, T 2 h", "result": "230 ± 87", "unit": "ng/mL"}, {"measurement": "plasma concentration (cc) of free monomeric (+)-catechin", "setting": "[1]; group B, oral 1 g pure catechin, T 3 h", "result": "226 ± 38", "unit": "ng/mL"}, {"measurement": "plasma concentration (cc) of free monomeric (+)-catechin", "setting": "[1]; group B, oral 1 g pure catechin, T 4 h", "result": "128 ± 51", "unit": "ng/mL"}, {"measurement": "plasma concentration (cc) of free monomeric (+)-catechin", "setting": "[1]; group B, oral 1 g pure catechin, T 6 h", "result": "27 ± 13", "unit": "ng/mL"}, {"measurement": "T (max)", "setting": "[1]; [3]", "result": 1.20, "unit": "h"}, {"measurement": "ct (total concentration, area under curve over 6 h)", "setting": "[1]; [3]", "result": "904 ± 163", "unit": "ng·h/mL"}, {"measurement": "c (max)", "setting": "[1]; oral 1 g pure catechin, free catechin", "result": 280, "unit": "ng/mL"}, {"measurement": "T (max)", "setting": "[1]; oral, humans, as stated in summary text", "result": 1.33, "unit": "h"}, {"measurement": "c (max) related to 0.92 g of pure (+)-catechin", "setting": "[1]; oral, scaled from 1 g to 0.92 g dose", "result": 258, "unit": "ng/mL"}, {"measurement": "ct related to 0.92 g of pure (+)-catechin", "setting": "[1]; oral, scaled from 1 g to 0.92 g dose, listed as pure (+)-catechin", "result": "832 ± 150", "unit": "ng·h/mL"}, {"measurement": "Δct (difference of ct to CP)", "setting": "[2]; free catechin, dose equivalent to 100 mg/kg catechin", "result": 0, "unit": "%"}, {"measurement": "T (max)", "setting": "[2]; [4]", "result": 1, "unit": "h"}, {"measurement": "c (max)", "setting": "[2]; [4]", "result": 716, "unit": "ng/mL"}, {"measurement": "ct", "setting": "[2]; [4]", "result": "96 238 ng min/ml"}, {"measurement": "Δct (difference of ct to CP)", "setting": "[2]; free catechin, equivalent to 25 mg/kg (comparative example 4)", "result": 0, "unit": "%"}, {"measurement": "Δct (difference of ct to CP)", "setting": "[2]; free catechin, equivalent to 25 mg/kg (comparative examples 7-9)", "result": 0, "unit": "%"}, {"measurement": "T (max)", "setting": "[2]; [5]", "result": 0.5, "unit": "h"}, {"measurement": "c (max)", "setting": "[2]; [5]", "result": 154, "unit": "ng/mL"}, {"measurement": "ct", "setting": "[2]; [5]", "result": "21 145 ng min/ml"}, {"measurement": "T (max)", "setting": "[2]; [6]", "result": 1, "unit": "h"}, {"measurement": "c (max)", "setting": "[2]; [6]", "result": 580, "unit": "ng/mL"}, {"measurement": "Δct (difference of ct to CP)", "setting": "[2]; total (+)-catechin, equivalent to 25 mg/kg", "result": 0, "unit": "%"}, {"measurement": "T (max)", "setting": "[2]; [7]", "result": 0.5, "unit": "h"}, {"measurement": "c (max)", "setting": "[2]; [7]", "result": 2200, "unit": "ng/mL"}, {"measurement": "ct", "setting": "[2]; [7]", "result": "273 875 ng min/ml"}, {"measurement": "solubility in water", "setting": "Solubility in water; at 20° C.", "result": 0.9, "unit": "g per liter"}, {"measurement": "solubility in water, times lower than in the form of a complex", "setting": "Solubility in water; pure catechin versus complex with basic amino acid", "result": 400, "unit": "times"}, {"measurement": "increase in the level of incorporation versus control", "setting": "rat skin", "result": "+16%"}, {"measurement": "level of incorporation into collagen (IC) of 3H-hydroxyproline in rat skin", "setting": "rat skin; treated subgroup", "result": "1124 ± 51", "unit": "dpm/mg"}, {"measurement": "level of total incorporation (IT) of 3H-hydroxyproline in rat skin", "setting": "rat skin; treated subgroup", "result": "5689 ± 410", "unit": "dpm/mg"}]}]}
